Laboratory results reported in PubChem BioAssay AID256 (DTP/NCI, 2004).
Inconclusive results and toxic doses are left out.

Tested on: CD2F1 mice, L1210 leukemia ip, survival T/C
Assay: NCI In Vivo Anticancer Drug Screen. Data for tumor model L1210 Leukemia (intraperitoneal) in CD2F1 (CDF1) mice
Details: endpoint: mean survival time, higher = longer survival
Method in brief: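 Mice carrying a transplanted tumor received test compound or vehicle alone. The value is the measurement in the treated group divided by that in the vehicle-treated control group.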

[1] = dose: 100.0 mg/kg/injection, schedule: Q04DX003 (ip), vehicle: saline
[2] = dose: 200.0 mg/kg/injection, schedule: Q04DX003 (ip), vehicle: saline
[3] = dose: 100.0 mg/kg/injection, schedule: Q04DX002 (ip), vehicle: saline with Tween-80
[4] = dose: 200.0 mg/kg/injection, schedule: Q04DX002 (ip), vehicle: saline with Tween-80
[5] = dose: 50.0 mg/kg/injection, schedule: Q04DX002 (ip), vehicle: saline with Tween-80
[6] = dose: 400.0 mg/kg/injection, schedule: Q04DX002 (ip), vehicle: saline with Tween-80
[7] = dose: 6.25 mg/kg/injection, schedule: Q01DX009 (ip), vehicle: saline with Tween-80
[8] = dose: 12.5 mg/kg/injection, schedule: Q01DX009 (ip), vehicle: saline with Tween-80
[9] = dose: 25.0 mg/kg/injection, schedule: Q01DX009 (ip), vehicle: saline with Tween-80
[10] = dose: 100.0 mg/kg/injection, schedule: Q04DX003 (ip), vehicle: Klucel (hydroxypropylcellulose) (HPC)
[11] = dose: 2.0 mg/kg/injection, schedule: Q04DX003 (ip), vehicle: saline
[12] = dose: 100.0 mg/kg/injection, schedule: Q04DX003 (ip), vehicle: saline with Tween-80
[13] = dose: 200.0 mg/kg/injection, schedule: Q04DX003 (ip), vehicle: saline with Tween-80
[14] = dose: 100.0 mg/kg/injection, schedule: Q01DX001 (ip), vehicle: saline
[15] = dose: 200.0 mg/kg/injection, schedule: Q01DX001 (ip), vehicle: saline
[16] = dose: 400.0 mg/kg/injection, schedule: Q01DX001 (ip), vehicle: saline

Cc1cn(C(C=O)OC(C=O)CO)c(=O)[nH]c1=O (stereo unspecified)
T/C (dose: 10.0 mg/kg/injection, schedule: Q01DX005 (ip), vehicle: water): 107 % of control | T/C (dose: 10.0 mg/kg/injection, schedule: Q01DX009 (ip), vehicle: water): 104 % of control | T/C (dose: 12.5 mg/kg/injection, schedule: Q01DX005 (ip), vehicle: water): 104 % of control | T/C (dose: 20.0 mg/kg/injection, schedule: Q01DX005 (ip), vehicle: water): 102 % of control | T/C (dose: 20.0 mg/kg/injection, schedule: Q01DX009 (ip), vehicle: water): 107 % of control | T/C (dose: 25.0 mg/kg/injection, schedule: Q01DX005 (ip), vehicle: water): 98 % of control | T/C (dose: 40.0 mg/kg/injection, schedule: Q01DX005 (ip), vehicle: water): 112 % of control | T/C (dose: 40.0 mg/kg/injection, schedule: Q01DX009 (ip), vehicle: water): 124 % of control | T/C (dose: 50.0 mg/kg/injection, schedule: Q01DX005 (ip), vehicle: water): 104 % of control | T/C (dose: 80.0 mg/kg/injection, schedule: Q01DX009 (ip), vehicle: water): 120 % of control | T/C (dose: 100.0 mg/kg/injection, schedule: Q01DX005 (ip), vehicle: water): 104 % of control | T/C (dose: 160.0 mg/kg/injection, schedule: Q01DX009 (ip), vehicle: water): 102 % of control | T/C (dose: 200.0 mg/kg/injection, schedule: Q01DX005 (ip), vehicle: water): 109 % of control

CCCCCCOC(=O)C[n+]1ccc(C(N)=O)cc1
T/C [1]: 101 % of control | T/C [2]: 94 % of control

COc1ccccc1NC(=O)Oc1ccc(Cl)cc1Cl
T/C [3]: 103 % of control | T/C [4]: 95 % of control

O=C(O)C1CC(n2cnc3c(=O)[nH]cnc32)CN1 (stereo unspecified)
T/C [5]: 96 % of control | T/C [3]: 110 % of control | T/C [4]: 93 % of control | T/C [6]: 93 % of control

Nc1ncnc2c1ncn2[C@@H](C=O)O[C@@H](C=O)CO
T/C (dose: 3.12 mg/kg/injection, schedule: Q01DX009 (ip), vehicle: saline with Tween-80): 164 % of control | T/C (dose: 3.13 mg/kg/injection, schedule: Q01DX005 (ip), vehicle: saline with Tween-80): 152 % of control | T/C (dose: 6.25 mg/kg/injection, schedule: Q01DX005 (ip), vehicle: saline with Tween-80): 180 % of control | T/C [7]: 176 % of control | T/C (dose: 12.5 mg/kg/injection, schedule: Q01DX005 (ip), vehicle: other): 165 % of control | T/C (dose: 12.5 mg/kg/injection, schedule: Q01DX005 (ip), vehicle: saline with Tween-80): 153 % of control | T/C [8]: 185 % of control | T/C (dose: 25.0 mg/kg/injection, schedule: Q01DX005 (ip), vehicle: other): 172 % of control | T/C [9]: 89 % of control

Cc1ccc(NCCN2CCCCC2)c2c(=O)c3ccccc3sc12
T/C [10]: 93 % of control | T/C (dose: 200.0 mg/kg/injection, schedule: Q04DX003 (ip), vehicle: Klucel (hydroxypropylcellulose) (HPC)): 103 % of control | T/C (dose: 400.0 mg/kg/injection, schedule: Q04DX003 (ip), vehicle: Klucel (hydroxypropylcellulose) (HPC)): 109 % of control

CN(C)P(=O)(OP(=O)(N(C)C)N(C)C)N(C)C
T/C [11]: 102 % of control | T/C (dose: 4.0 mg/kg/injection, schedule: Q04DX003 (ip), vehicle: saline): 98 % of control | T/C (dose: 8.0 mg/kg/injection, schedule: Q04DX003 (ip), vehicle: saline): 100 % of control

CC(=O)OCC1OC(OC(C)=O)C(NC(=O)Nc2ccccc2)C(OC(C)=O)C1OC(C)=O (stereo unspecified)
T/C (dose: 12.5 mg/kg/injection, schedule: Q01DX009 (ip), vehicle: other): 96 % of control | T/C (dose: 25.0 mg/kg/injection, schedule: Q01DX009 (ip), vehicle: other): 94 % of control | T/C (dose: 50.0 mg/kg/injection, schedule: Q01DX009 (ip), vehicle: other): 96 % of control | T/C (dose: 100.0 mg/kg/injection, schedule: Q01DX009 (ip), vehicle: other): 93 % of control | T/C (dose: 200.0 mg/kg/injection, schedule: Q01DX009 (ip), vehicle: other): 94 % of control

CCOc1ccc2nc([NH-])sc2c1.CCOc1ccc2nc([NH-])sc2c1.[Cl][Pt+2][Cl]
T/C (dose: 3.13 mg/kg/injection, schedule: Q04DX003 (ip), vehicle: distilled water + Tween-80): 96 % of control | T/C (dose: 6.25 mg/kg/injection, schedule: Q04DX003 (ip), vehicle: distilled water + Tween-80): 96 % of control | T/C (dose: 12.5 mg/kg/injection, schedule: Q04DX003 (ip), vehicle: distilled water + Tween-80): 96 % of control | T/C (dose: 25.0 mg/kg/injection, schedule: Q04DX003 (ip), vehicle: distilled water + Tween-80): 95 % of control | T/C (dose: 50.0 mg/kg/injection, schedule: Q04DX003 (ip), vehicle: distilled water + Tween-80): 98 % of control | T/C (dose: 100.0 mg/kg/injection, schedule: Q04DX003 (ip), vehicle: distilled water + Tween-80): 101 % of control | T/C (dose: 200.0 mg/kg/injection, schedule: Q04DX003 (ip), vehicle: distilled water + Tween-80): 96 % of control

Cc1nc2n[nH]c(N)c2nc1C
T/C (dose: 100.0 mg/kg/injection, schedule: Q01DX009 (ip), vehicle: saline): 100 % of control | T/C (dose: 200.0 mg/kg/injection, schedule: Q01DX009 (ip), vehicle: saline): 106 % of control | T/C (dose: 400.0 mg/kg/injection, schedule: Q01DX009 (ip), vehicle: saline): 106 % of control

O=C1c2cc([N+](=O)[O-])ccc2-c2cc(Br)ccc21
T/C [12]: 99 % of control | T/C [13]: 91 % of control

O=[N+]([O-])c1ccc(NN=C2c3ccccc3Cc3ccccc32)c([N+](=O)[O-])c1
T/C (dose: 25.0 mg/kg/injection, schedule: Q04DX002 (ip), vehicle: saline with Tween-80): 98 % of control | T/C [5]: 91 % of control | T/C [3]: 87 % of control

CCCCC[CH2][Sn]([CH2]C)([CH2]C)[O]C(C)=O
T/C (dose: 0.5 mg/kg/injection, schedule: Q04DX003 (ip), vehicle: saline): 103 % of control | T/C (dose: 0.63 mg/kg/injection, schedule: Q04DX003 (ip), vehicle: saline with Tween-80): 95 % of control | T/C (dose: 1.0 mg/kg/injection, schedule: Q04DX003 (ip), vehicle: saline): 100 % of control | T/C (dose: 1.25 mg/kg/injection, schedule: Q04DX003 (ip), vehicle: saline with Tween-80): 93 % of control | T/C [11]: 91 % of control | T/C (dose: 2.5 mg/kg/injection, schedule: Q04DX003 (ip), vehicle: saline with Tween-80): 88 % of control

COC(=O)c1[se]c(C(=O)OC)c(-c2ccccc2)c1-c1ccccc1
T/C [14]: 100 % of control | T/C [15]: 103 % of control | T/C [16]: 103 % of control

OCCC(c1ccccc1)(c1ccccc1)c1ccccc1
T/C [7]: 113 % of control | T/C [8]: 108 % of control | T/C [9]: 100 % of control

Cc1c(C)c(C)c(CCl)c(C)c1C
T/C (dose: 50.0 mg/kg/injection, schedule: Q01DX009 (ip), vehicle: saline with Tween-80): 103 % of control | T/C (dose: 100.0 mg/kg/injection, schedule: Q01DX009 (ip), vehicle: saline with Tween-80): 103 % of control

Cc1ccc(NC(=O)c2ccccc2C(=O)O)cc1
T/C [12]: 101 % of control | T/C [13]: 97 % of control | T/C (dose: 400.0 mg/kg/injection, schedule: Q04DX003 (ip), vehicle: saline with Tween-80): 95 % of control

Clc1ccc(NC2=NCCO2)cc1
T/C [10]: 94 % of control

CN(C)N=Nc1ccc(N=Nc2ccc(N(CCO)CCO)cc2)cc1
T/C [14]: 102 % of control | T/C [15]: 93 % of control | T/C [16]: 101 % of control

CCCCCCCCCCCCSCCC(=O)O
T/C [1]: 98 % of control | T/C [2]: 98 % of control | T/C (dose: 400.0 mg/kg/injection, schedule: Q04DX003 (ip), vehicle: saline): 97 % of control

CCOC(=O)c1cnc[nH]1
T/C [3]: 103 % of control | T/C [4]: 95 % of control | T/C [6]: 103 % of control

CCOC(=O)c1c2cccccc-2c(C#N)c1O
T/C (dose: 100.0 mg/kg/injection, schedule: Q01DX001 (ip), vehicle: saline with Tween-80): 93 % of control | T/C (dose: 200.0 mg/kg/injection, schedule: Q01DX001 (ip), vehicle: saline with Tween-80): 99 % of control | T/C (dose: 400.0 mg/kg/injection, schedule: Q01DX001 (ip), vehicle: saline with Tween-80): 96 % of control
